Measured values published in US20230348465A1, “IBOGAINE ANALOGS AS THERAPEUTICS FOR NEUROLOGICAL AND PSYCHIATRIC DISORDERS” (The Trustees of Columbia University in the City of New York, priority 2020, published 2023).
Like-named read-outs stand apart in the source and are kept apart here.

Key:
hSERT = target: T1, hSERT (Homo sapiens, UniProt P31645); test: hSERT screening assay: inhibition of uptake of the fluorescent substrate APP+ in stably transfected hSERT-HEK cells; type: cell-based; conditions: for IC50: hSERT-HEK cells, APP+ 1.1 µM, mean ± SEM, n ≥ 4, read-out: SERT IC50; for Ki: Cheng-Prusoff from IC50, Km (APP+) = 1.6 µM, read-out: SERT Ki
T1 construct: expressed in transfected cells; host or cells: HEK cells, stably transfected (hSERT-HEK), kept under G418
T1 sequence (P31645 whole entry): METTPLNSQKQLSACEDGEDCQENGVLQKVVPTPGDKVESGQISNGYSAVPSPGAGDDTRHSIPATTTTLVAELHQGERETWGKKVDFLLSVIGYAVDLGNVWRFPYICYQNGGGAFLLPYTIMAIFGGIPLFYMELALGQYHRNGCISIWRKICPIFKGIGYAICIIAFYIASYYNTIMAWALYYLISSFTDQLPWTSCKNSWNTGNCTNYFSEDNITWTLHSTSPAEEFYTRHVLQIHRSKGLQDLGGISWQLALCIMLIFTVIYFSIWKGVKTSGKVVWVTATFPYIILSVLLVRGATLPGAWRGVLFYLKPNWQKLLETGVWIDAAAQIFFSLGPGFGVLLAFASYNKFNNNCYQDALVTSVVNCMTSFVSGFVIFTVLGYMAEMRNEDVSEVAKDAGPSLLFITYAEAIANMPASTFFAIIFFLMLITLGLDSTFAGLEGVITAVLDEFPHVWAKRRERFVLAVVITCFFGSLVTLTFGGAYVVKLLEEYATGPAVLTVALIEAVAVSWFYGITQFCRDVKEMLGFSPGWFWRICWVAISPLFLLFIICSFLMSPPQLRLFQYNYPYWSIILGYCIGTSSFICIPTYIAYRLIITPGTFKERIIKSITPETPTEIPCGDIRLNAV
Description: (§1) Stably transfected hSERT-HEK and rVMAT2-HEK cellular cultures were maintained in Dulbecco’s Minimal Essential Medium (DMEM) with GlutaMAX (Gibco) with the following additions: 10% (v/v) Fetal Bovine Serum (FBS, Atlanta Biologicals), 100 U/mL Penicillin, and 10 µg/mL Streptomycin (Gibco). With regards to the former cell lineage, an additional ingredient, 500 µg/mLGeneticin (G418) (Sigma) was included to preserve the respective transgene.
(§2) For both hSERT and rVMAT2 screening experiments, respective singly transfected cells were seeded at a density of 0.09 × 10^6 cells/well in poly-D-Lysine (Sigma) coated white solid-bottom 96-well plates. Growth was permitted for approximately 44 hours in said aqueous media and at an incubation environment of 37° C. and 5% Carbon Dioxide. At the beginning of the experiment, the cellular growth solution was aspirated, and individual cells were rinsed with 150 µL of 1× Dulbecco’s Phosphate Buffered Saline (PBS; HyClone). 63 µL of Experimental Media (consisting of the following contents: DMEM without phenol red but with 4.5 g/L of D-Glucose (Gibco), 1 % (v/v) FBS (Atlanta Biologicals), 100 U/mL Penicillin, and 10 µg/mLStreptomycin (Gibco)) with 2 × tiered concentrations of inhibitor (or DMSO, the vehicle of these experiments) were added to the respective wells. […] After a required incubation period of 30 minutes for proper fluorescent probe uptake, the contents of each well were aspirated and consequently, rinsed twice with 120 µL of PBS. A final solution of 120 µL of PBS is finally added to all corresponding wells for cell maintenance before undergoing fluorescence uptake reading by a BioTek H1MF plate reader.
(§3) Numerical analysis of the collected experimental data preceded as accordingly. Respective inhibitor values were first subtracted from vehicular values to quantify the respective fluorescence uptake. This metric was then analyzed using the dose-response-inhibitor nonlinear curve fitting model ([inhibitor] vs response (three parameters)) as supplied by GraphPad Prism 6 software. For each inhibitor, the model supplied a respective IC50 ± SEM value (Table 1).

rVMAT2 = target: T2, rVMAT2 (Rattus norvegicus, UniProt Q01827); test: rVMAT2 screening assay: inhibition of uptake of the fluorescent substrate FFN206 in stably transfected rVMAT2-HEK cells; type: cell-based; conditions: for Ki: read-out: VMAT2 Ki
T2 construct: expressed in transfected cells; host or cells: HEK cells, stably transfected (rVMAT2-HEK)
T2 sequence (Q01827 whole entry): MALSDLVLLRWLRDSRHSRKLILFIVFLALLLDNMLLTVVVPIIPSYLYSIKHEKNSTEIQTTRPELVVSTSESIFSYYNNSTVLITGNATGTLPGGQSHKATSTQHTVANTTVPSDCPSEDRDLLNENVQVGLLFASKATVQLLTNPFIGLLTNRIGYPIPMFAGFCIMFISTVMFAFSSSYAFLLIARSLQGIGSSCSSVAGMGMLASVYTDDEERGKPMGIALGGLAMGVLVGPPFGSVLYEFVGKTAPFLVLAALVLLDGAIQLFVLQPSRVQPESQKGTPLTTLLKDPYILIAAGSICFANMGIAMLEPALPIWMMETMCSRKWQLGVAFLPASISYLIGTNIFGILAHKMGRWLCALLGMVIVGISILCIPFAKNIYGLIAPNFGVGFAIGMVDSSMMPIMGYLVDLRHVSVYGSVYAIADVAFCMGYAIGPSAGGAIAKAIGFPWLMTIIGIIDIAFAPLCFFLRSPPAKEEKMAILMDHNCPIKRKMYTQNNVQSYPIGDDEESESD
Description: as §1, §2, §3

[1] = Metabolic stability and noribogaine formation in rat liver microsomes (RLM), LC-MS/MS; conditions: for percent remaining of parent compound: 10 µM, + NADPH; for CLh,int: 45 mg microsomal protein per gm liver; for % Remaining at 60 min (- NADPH): without NADPH; for %Remaining at 60 min (Buffer): buffer control, RLM column; for half-life at 10 µM: male, rat, microsomes, pH 7.4
Description: (§4) Metabolism Studies. Metabolic stability of test compounds was evaluated in liver microsomes from rat (RLM) and human (HLM). This was accomplished by incubating test compounds with microsomes and monitoring disappearance of parent compound as well as metabolite formation over time using LC-MS/MS in Multiple Reaction Monitoring mode (MRM).
(§5) Stock solutions of test compounds were prepared in DMSO at a concentration of 10 mM.
(§6) From the above mix, 70 µL was added to individual wells of 96 well reaction plates and preincubated at 37° C. for 5 min. […] Reactions without NADPH and buffer controls (minus NADPH) at 0 min and 60 min were also incubated to rule out non-NADPH metabolism or chemical instability in the incubation buffer. All reactions were terminated using 100 µL of ice-cold acetonitrile containing internal standard (glipizide) at 0, 5, 15, 30 and 60 min.
(§7) Samples were monitored for parent compounds disappearance and formation of metabolite in MRM mode using LC-MS/MS instrument (API-4000 with Waters UPLC).
(§8) The percent remaining of test compounds and positive control in each sample was determined by considering peak area ratio in the 0 minute sample as 100%. The Half-life of compounds in microsomes is calculated by formula: […]
(§9) In vitro intrinsic clearance (CL´int) (units in mL/min/kg) was calculated using the formula: […]
(§10) * Indicates liver weight (gm) which varies species wise. For human, monkey, dog, rat and mouse the liver weight are 20 gm, 32 gm, 32 gm, 40 gm and 90 gm respectively.

[2] = Metabolic stability and noribogaine formation in human liver microsomes (HLM), LC-MS/MS; conditions: for percent remaining of parent compound / CLh,int / % Remaining at 60 min (+ NADPH) / % Remaining at 60 min (- NADPH): HLM; for percent remaining of parent compound: 10 µM, + NADPH; for CLh,int: 45 mg microsomal protein per gm liver; for % Remaining at 60 min (+ NADPH): summary line; for % Remaining at 60 min (- NADPH): without NADPH; for %Remaining at 60 min (Buffer): buffer control, HLM column; for half-life at 10 µM: human, microsomes, pH 7.4
Description: as §4, §5, §6, §7, §8, §9, §10

[3] = rVMAT2-HEK cells, FFN206 0.75 µM, mean ± SEM, n ≥ 4, read-out: VMAT2 IC50
[4] = ratio of potency to noribogaine

CCc1ccc2c(c1)c1c(n2C)C2CC3CC(CC)C2N(CC1)C3 (centres unmarked) [Compound 11, N-methyl-10-ethyl-ibogamine]
IC50 (hSERT): 910 ± 120 nM | IC50 (rVMAT2; [3]): 750 ± 70 nM

CCOc1ccc2[nH]c3c(c2c1)CCN1CC2CC(CC)C1C3C2 (centres unmarked) [10-Ethoxy-ibogamine]
SERT inhibition, result in words (hSERT): only a weak inhibitor of SERT | IC50 (hSERT): 9000 ± 1100 nM | VMAT2 inhibition, result in words (rVMAT2): potent VMAT2 inhibitor | VMAT2 inhibition, result in words (rVMAT2; listed as 10-Ethoxy-ibogaine): nearly an order of magnitude more potent | IC50 (rVMAT2; [3]): 80 ± 20 nM | Ki (rVMAT2): 50 ± 10 nM | percent remaining of parent compound ([1]; RLM, 0 min): 100% | CLh,int ([1]; RLM): 445 mL/min/kg | percent remaining of parent compound ([1]; RLM, 5 min): 77% | percent remaining of parent compound ([1]; RLM, 15 min): 42% | percent remaining of parent compound ([1]; RLM, 30 min): 3% | percent remaining of parent compound ([1]; RLM, 60 min): 0% | % Remaining at 60 min (+ NADPH) ([1]; RLM, summary line): 0% | % Remaining at 60 min (- NADPH) ([1]; RLM): 88% | %Remaining at 60 min (Buffer) [1]: 88% | half-life at 10 µM [1]: 6 min | percent remaining of parent compound ([2]; 0 min): 100% | CLh,int [2]: 13 mL/min/kg | percent remaining of parent compound ([2]; 5 min): 103% | percent remaining of parent compound ([2]; 15 min): 98% | percent remaining of parent compound ([2]; 30 min): 85% | percent remaining of parent compound ([2]; 60 min): 66% | % Remaining at 60 min (+ NADPH) [2]: 66% | % Remaining at 60 min (- NADPH) [2]: 106% | %Remaining at 60 min (Buffer) [2]: 88% | half-life at 10 µM [2]: > 60 min

CCC1CC2CC3c4c(c5cc(C#N)ccc5n4C)CCN(C2)C13 (centres unmarked) [Compound 10, N-methyl-ibogamine-10-carbonitrile]
IC50 (hSERT): 5.1 ± 0.83 nM | IC50 (rVMAT2; [3]): 440 ± 50 nM

CC[C@H]1C[C@H]2C[C@H]3c4[nH]c5ccc(O)cc5c4CCN(C2)[C@@H]13 [Noribogaine, reference compound]
SERT inhibition, result in words (hSERT): potent SERT inhibitor | Ki (rVMAT2; Cheng-Prusoff from IC50, Km (FFN206) = […]): 350 ± 40 nM | IC50 (rVMAT2; [3]): 570 ± 80 nM

CCC1CC2CC3c4[nH]c5ccc(C(N)=O)cc5c4CCN(C2)C13 (centres unmarked) [Compound 2, Ibogamine-10-carboxamide]
IC50 (hSERT): 2500 ± 290 nM | IC50 (rVMAT2; [3]): 3000 ± 570 nM

CCCOc1ccc2[nH]c3c(c2c1)CCN1CC2CC(CC)C1C3C2 (centres unmarked) [Compound 4, 10-Propoxy-ibogamine]
IC50 (hSERT): 3000 ± 500 nM

CCC1CC2CC3c4[nH]c5cc(Br)c(OC)cc5c4CCN(C2)C13 (centres unmarked) [Compound 18, 11-Bromo-ibogaine]
IC50 (hSERT): 200 ± 30 nM | IC50 (rVMAT2; [3]): 1000 ± 150 nM

CCC1CC2CC3c4[nH]c5ccc(OC)c(Br)c5c4CCN(C2)C13 (centres unmarked) [Compound 17, 9-Bromo-ibogaine]
Ki (hSERT): 400 ± 90 nM | IC50 (hSERT): 670 ± 160 nM | times less potent than noribogaine at SERT (hSERT; [4]): approximately 2.4 | IC50 (rVMAT2; [3]): 4900 ± 870 nM | times weaker than noribogaine at VMAT2 (rVMAT2; [4]): ~8.6 | Ki (rVMAT2): 3000 ± 530 nM

CCC1CC2CC3c4[nH]c5ccc(C#N)cc5c4CCN(C2)C13 (centres unmarked) [Compound 3, Ibogamine-10-carbonitrile]
IC50 (hSERT): 26 ± 3.8 nM | IC50 (rVMAT2; [3]): 3300 ± 430 nM

CCC1CC2CC3c4c(c5cc(O)ccc5n4CC)CCN(C2)C13 (centres unmarked) [Compound 13, N-ethyl-noribogaine]
IC50 (hSERT): 1900 ± 200 nM | IC50 (rVMAT2; [3]): 70 ± 10 nM

CCC1CC2CC3c4[nH]c5ccccc5c4CCN(C2)C13 (centres unmarked) [Compound 5, Ibogamine]
Ki (hSERT): 200 ± 20 nM | IC50 (hSERT): 330 ± 40 nM | IC50 (rVMAT2; [3]): 3000 ± 550 nM | times weaker than noribogaine at VMAT2 (rVMAT2; [4]): approximately 5.3 | Ki (rVMAT2): 1800 ± 340 nM

CCC1CC2CC3c4c(c5cc(OC)ccc5n4C)CCN(C2)C13 (centres unmarked) [Compound 7, N-methyl-ibogaine]
IC50 (hSERT): 1500 ± 130 nM | IC50 (rVMAT2; [3]): 740 ± 110 nM

CCOc1ccc2c(c1)c1c(n2C)C2CC3CC(CC)C2N(CC1)C3 (centres unmarked) [Compound 14, N-methyl-10-ethoxy-ibogamine]
IC50 (hSERT): 2800 ± 380 nM

CCC1CC2CC3c4[nH]c5ccc(OC)cc5c4CCN(C2)C13 (centres unmarked) [Ibogaine]
IC50 (rVMAT2): ~4000 nM | percent remaining of parent compound ([1]; RLM, 0 min): 100% | CLh,int ([1]; RLM): 306 mL/min/kg | percent remaining of parent compound ([1]; RLM, 5 min): 86% | percent remaining of parent compound ([1]; RLM, 15 min): 56% | percent remaining of parent compound ([1]; RLM, 30 min): 23% | percent remaining of parent compound ([1]; RLM, 60 min): 1% | % Remaining at 60 min (- NADPH) ([1]; RLM): 104% | %Remaining at 60 min (Buffer) [1]: 103% | half-life at 10 µM [1]: 8 min | percent remaining of parent compound ([2]; 0 min): 100% | CLh,int [2]: 7 mL/min/kg | percent remaining of parent compound ([2]; 5 min): 104% | percent remaining of parent compound ([2]; 15 min): 98% | percent remaining of parent compound ([2]; 30 min): 94% | percent remaining of parent compound ([2]; 60 min): 81% | % Remaining at 60 min (+ NADPH) [2]: 81% | % Remaining at 60 min (- NADPH) [2]: 98% | %Remaining at 60 min (Buffer) [2]: 103% | half-life at 10 µM [2]: > 60 min

CCC1CC2CC3c4[nH]c5ccc(OC)c(Cl)c5c4CCN(C2)C13 (centres unmarked) [Compound 19, 9-Chloro-ibogaine]
IC50 (hSERT): 1200 ± 120 nM | IC50 (rVMAT2; [3]): 18000 ± 5900 nM

CCC1CC2CC3c4c(c5cc(O)ccc5n4C)CCN(C2)C13 (centres unmarked) [Compound 8, N-methyl-noribogaine]
Ki (hSERT): 35 ± 6.7 nM | IC50 (hSERT): 59 ± 11 nM | times more potent than noribogaine at SERT (hSERT; [4]): approximately 4.7 | IC50 (rVMAT2; [3]): 170 ± 30 nM | times more potent than noribogaine at VMAT2 (rVMAT2; [4]): approximately 3.4 | Ki (rVMAT2): 100 ± 20 nM

CCC1CC2CC3c4c(c5ccccc5n4C)CCN(C2)C13 (centres unmarked) [Compound 6, N-methyl-ibogamine]
IC50 (hSERT): 80 ± 9 nM | IC50 (rVMAT2; [3]): 1500 ± 160 nM
